Results: patent US20080312330A1, “Methods for Reducing Mortality and Morbidity by Postoperative Administration of a Pharmacologic Cardiovascular Agent” (priority 1996, published 2008)
“And” between values parts separate entries of the source, which are not always exact repeats. Identical values can stand only once.

Columns and labels:
[1] = test system: patients with, or at risk for coronary artery disease and scheduled for elective noncardiac surgery; assay: Same trial: in-hospital tolerance, hemodynamics and in-hospital deaths during study drug administration
Description: (§1) Patients were randomized to receive either atenolol “TENORMIN” (Zeneca Pharmaceuticals) or placebo prior to induction of anesthesia, immediately following surgery, and daily throughout their hospitalization (up to 7 days). Drug assignment, study physicians, treating clinicians, and data analysis personnel were blinded to study group throughout all phases of this trial.
(§2) Intravenous preparation consisted of two-10-ml syringes, each containing 5 mg atenolol or placebo; oral preparation consisted of two 50 mg tablets of atenolol, or two placebo tablets. Approximately one hour prior to surgery, patients entered the preoperative area and blood pressure was recorded with an automated cuff and 5-lead continuous electrocardiograph. Thirty-minutes prior to entry into the operating room, intravenous administration of study drug began. Exclusion criteria for study drug administration were heart rate <55 bpm, systolic blood pressure <100 mm Hg, or evidence of congestive heart failure, third degree heart block, or bronchospasm (ISIS-I protocol, 1986, Lancet 2:56-66). […] Immediately following surgery, the study drug was again given using the identical technique applied prior to surgery. On the morning of the first postoperative day, and daily thereafter until the patient was discharged from the hospital (up to a maximum of seven days), patients received study drug every 12 hours using the same technique for intravenous infusion, or orally (if able) at which time a tablet of atenolol (0, 50 or 100 mg) or placebo was given daily. If heart rate was >65 bpm and systolic blood pressure >100 mm Hg, 100 mg atenolol (or placebo) was given orally; if heart rate was >55 but <65 bpm and systolic blood pressure >100 mm Hg, 50 mg atenolol (or placebo) was administered; if heart rate was <55 bpm or systolic blood pressure <100 mm Hg, 0 mg atenolol (or placebo) was given. No treating clinician was allowed to observe study drug administration either prior to, or after, surgery.
(§3) All patients received general anesthesia with endotracheal intubation; preoperative medications were continued until the time of surgery, with beta-blockers replaced by study drug on the morning of surgery. There were no other protocol-based restrictions of anesthetic or surgical technique, and clinical decisions were not controlled by study protocol. Perioperative information was recorded and analyzed for possible confounding effects, and included: type and duration of surgery, anesthetic techniques, fluid and blood loss and replacement, cardiovascular medications, hemodynamics, electrocardiographic data, and adverse events.
At six months, one year and two years following surgery, study physicians conducted scheduled research study visits that were independent of usual clinical care. Data collected during each visit included history and physical examination, a 12-lead electrocardiogram, and review of all medical records, medications and hospital admissions. Cardiac death was diagnosed if the patient died of either a myocardial infarction, dysrhythmia or congestive heart failure caused primarily by a cardiac condition.

[2] = test system: patients with, or at risk for coronary artery disease and scheduled for elective noncardiac surgery; assay: Randomized, blinded, placebo-controlled trial: mortality and cardiovascular outcomes over two years following noncardiac surgery; format: in vivo
From the text: Eligible patients included those with, or at risk for coronary artery disease and scheduled for elective noncardiac surgery requiring general anesthesia at the San Francisco Veterans Affairs Medical Center. The specific inclusion and exclusion criteria have been described previously (Mangano et al., 1990, N. Eng. J. Med. 323:1781-1788; Mangano et al., 1992, JAMA 268:233-239).
as §1, §2, §3
At six months, one year and two years following surgery, study physicians conducted scheduled research study visits that were independent of usual clinical care.

[3] = long-term deaths, one line per patient of the atenolol group

SMILES: CC(C)NCC(O)COc1ccc(CC(N)=O)cc1 (stereo not drawn) [atenolol]
- noncardiac deaths secondary to metastatic cancer during hospitalization ([1]; during hospitalization): two
- noncardiac deaths with pulmonary failure secondary to massive infusion for fluid loss during hospitalization ([1]; during hospitalization): one
- cardiac deaths secondary to myocardial infarction during hospitalization ([1]; during hospitalization, placebo two): one
- average heart rate during treatment ([1]; during treatment, placebo 87 bpm, P<0.001): 75 bpm
- maximum heart rate during treatment ([1]; during treatment, placebo 130 bpm, P<0.001): 113 bpm
- patients tolerating the full dose ([1]; human, in vivo): more than 60%
- patients who tolerated administration ([1]; human, in vivo): More than 85%
- patients with 20% or more decrease in systolic blood pressure or heart rate ([1]; human, in vivo, iv): approximately 10%
- patients who developed systolic blood pressure <90 mm Hg or heart rate <40 bpm, or required therapy ([1]; in vivo, iv): no patient
- incidence of hypotension or bradycardia, or other events ([1]; in vivo, po): not associated with an increased incidence
- HAZARDS RATIO, two-year mortality, multivariate models ([2]; Cox multivariate, 30 deaths among 200 patients): 0.5
- HAZARDS RATIO, two-year mortality, univariable models ([2]; Cox univariable, 30 deaths among 200 patients): 0.4
- hazard ratio, survival in diabetics at two years ([2]; diabetics, two years, P=0.03): 0.25
- improvement of survival in diabetics at two years ([2]; diabetics, two years, P=0.03): approximately 75%
- deaths over the first 6-8 months ([2]; first 6-8 months, noncardiac, placebo 10 deaths with 7 cardiac-related, P<0.001): one
- CAUSE OF DEATH [2, 3]: Respiratory failure and Ventricular tachycardia and Severe CAD, sepsis and Sepsis, ALS and Metastatic renal CA and CHF post CABG and ARDS and Cardiac arrest, lung CA and Metastatic squamous cell CA, larynx, lung
- TIME TO DEATH [2, 3]: 237 days and 295 days and 327 days and 385 days and 416 days and 481 days and 529 days and 582 days and 656 days
- decrease in the rate of cardiac events within one year ([2]; one year, versus placebo): 3 fold
- cardiac events within one year following surgery ([2]; one year, placebo 22 patients, P=0.003): 7 patients
- time-to-first adverse event ([2]; placebo group 6 days): 158 days
- time to first death ([2]; placebo group 19 days): 237 days
- cardiac events within six months following surgery ([2]; six months, placebo 12 patients, P<0.001): 0 patients
- cardiovascular event-free survival of patients (FIG. 2) ([2]; two years after surgery): increases cardiovascular event-free survival of patients for two years after surgery
- survival of patients (FIG. 1) ([2]; two years after surgery): increases the survival of patients for two years after surgery
- decrease in the rate of cardiac events within two years ([2]; two years, versus placebo): 2 fold
- reduction in all-cause mortality ([2]; two years, versus placebo, P=0.019): 57%
- reduction in cardiac mortality ([2]; two years, versus placebo, P=0.033): 67%
- cardiac-related deaths over the two-year outcome period ([2]; two years, placebo 12 cardiac): 4 deaths
- deaths (all-cause) over the two-year outcome period ([2]; two years, placebo 21 deaths, P=0.019): 9 deaths
- cardiac events within two years following surgery ([2]; two years, placebo 32 patients, P=0.008): 16 patients
